Results on 1 compound are retold here after publication PMC6722837, “Multiple Modulation of Acid-Sensing Ion Channel 1a by the Alkaloid Daurisoline” (Biomolecules, 2019).

Broadly, the EC50 is the concentration needed to bring the measured effect to its halfway point. High values mean a less potent agent, low ones a more potent agent.

The assay deals with T1, ASIC1a (acid-sensing ion channel 1a) (Rattus norvegicus, UniProt P55926).
T1 construct: gene Asic1; rat ASIC1a isoform expressed in Xenopus laevis oocytes
T1 sequence (P55926 1-526): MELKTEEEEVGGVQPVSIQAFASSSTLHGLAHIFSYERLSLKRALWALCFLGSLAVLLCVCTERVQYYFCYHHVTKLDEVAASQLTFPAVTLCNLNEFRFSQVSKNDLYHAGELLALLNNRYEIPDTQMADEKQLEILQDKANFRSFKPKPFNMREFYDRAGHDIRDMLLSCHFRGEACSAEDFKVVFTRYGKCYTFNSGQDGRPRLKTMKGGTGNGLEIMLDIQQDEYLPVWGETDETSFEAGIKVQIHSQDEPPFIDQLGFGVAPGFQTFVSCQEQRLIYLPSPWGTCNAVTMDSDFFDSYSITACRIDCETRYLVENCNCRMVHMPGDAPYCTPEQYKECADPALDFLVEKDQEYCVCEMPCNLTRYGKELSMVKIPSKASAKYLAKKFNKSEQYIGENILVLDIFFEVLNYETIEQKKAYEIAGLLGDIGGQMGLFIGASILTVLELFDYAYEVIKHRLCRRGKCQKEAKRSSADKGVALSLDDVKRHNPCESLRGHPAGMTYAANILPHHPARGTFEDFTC
Put plainly: two-electrode voltage clamp in Xenopus oocytes; second peak of the pH […].5-evoked current at conditioning pH […]. It is filed as cell-based. (Two-electrode voltage clamp is typically applied to oocytes expressing channels or transporters.)

Each structure is given as a SMILES string.

For the compound `COc1cc2c(cc1O)[C@@H](Cc1ccc(O)c(Oc3ccc(C[C@@H]4c5cc(OC)c(OC)cc5CCN4C)cc3)c1)N(C)CC2` [DAU, daurisoline], the EC50 amounted to 23 ± 3 µM.
